Results from PubChem BioAssay (NCI).
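Tested at 5 concentrations; 48 h exposure; 96-well plates; endpoints linearly interpolated, else capped at highest concentration. Abbreviation: GI50, concentration required for 50% inhibition of growth. TGI denotes the concentration required for complete inhibition of growth.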

Key:
Assay in all cases: NCI-60 cell line screen, 48 h
HT29 colon = test system: HT29 colon
UO-31 renal = test system: UO-31 renal
SNB-19 CNS = test system: SNB-19 CNS
HOP-92 NSCLC = test system: HOP-92 NSCLC
CAKI-1 renal = test system: CAKI-1 renal
NCI-H23 lung = test system: NCI-H23 lung
HL-60(TB) leukemia = test system: HL-60(TB) leukemia
NCI-H226 lung = test system: NCI-H226 lung
RPMI-8226 leukemia = test system: RPMI-8226 leukemia
PC-3 prostate = test system: PC-3 prostate
NCI/ADR-RES ovarian = test system: NCI/ADR-RES ovarian
ACHN renal = test system: ACHN renal
NCI-H460 lung = test system: NCI-H460 lung
LOX IMVI melanoma = test system: LOX IMVI melanoma
OVCAR-5 ovarian = test system: OVCAR-5 ovarian
OVCAR-8 ovarian = test system: OVCAR-8 ovarian
MDA-MB-435 = test system: MDA-MB-435
UACC-257 melanoma = test system: UACC-257 melanoma
OVCAR-4 ovarian = test system: OVCAR-4 ovarian
NCI-H522 lung = test system: NCI-H522 lung
SW-620 colon = test system: SW-620 colon
SN12C renal = test system: SN12C renal
U251 CNS = test system: U251 CNS
MALME-3M melanoma = test system: MALME-3M melanoma
K-562 leukemia = test system: K-562 leukemia
SK-MEL-5 melanoma = test system: SK-MEL-5 melanoma
MCF7 breast = test system: MCF7 breast
RXF 393 renal = test system: RXF 393 renal

Work on `COc1ccc2nc(Cl)c(-c3cc(-c4ccccc4)nc(N)n3)cc2c1` yielded a GI50 (HT29 colon) of 5.11 µM, a TGI (HT29 colon) of 18.7 µM and a GI50 (UO-31 renal) of 4.3 µM. It also gave a TGI (UO-31 renal) of 17.6 µM, a GI50 (SNB-19 CNS) of 7.62 µM and a TGI (SNB-19 CNS) of 23.5 µM. For the same molecule, the GI50 (HOP-92 NSCLC) was 11.3 µM, the TGI (HOP-92 NSCLC) was 62 µM and the GI50 (CAKI-1 renal) was 20.5 µM. The TGI (CAKI-1 renal) was 71.4 µM, the GI50 (NCI-H23 lung) was 6.53 µM and the TGI (NCI-H23 lung) was 23.4 µM. For the same molecule, the GI50 (HL-60(TB) leukemia) was 1.55 µM, the TGI (HL-60(TB) leukemia) was over 100 µM and the GI50 (NCI-H226 lung) was 7.23 µM. For the same molecule, the TGI (NCI-H226 lung) was 53.9 µM, the GI50 (RPMI-8226 leukemia) was 3.31 µM and the TGI (RPMI-8226 leukemia) was over 100 µM. The GI50 (PC-3 prostate) was 5.79 µM, the TGI (PC-3 prostate) was over 100 µM and the GI50 (NCI/ADR-RES ovarian) was 4.77 µM. The TGI (NCI/ADR-RES ovarian) was 36 µM, the GI50 (ACHN renal) was 10.6 µM and the TGI (ACHN renal) was 30.8 µM. It also gave a GI50 (NCI-H460 lung) of 3.58 µM, a TGI (NCI-H460 lung) of 13.5 µM and a GI50 (LOX IMVI melanoma) of 1.92 µM. It also gave a TGI (LOX IMVI melanoma) of 4.23 µM, a GI50 (OVCAR-5 ovarian) of 6.61 µM and a TGI (OVCAR-5 ovarian) of 29.1 µM. It also gave a GI50 (OVCAR-8 ovarian) of 3.37 µM, a TGI (OVCAR-8 ovarian) of 18.5 µM and a GI50 (MDA-MB-435) of 12.8 µM. For the same molecule, the TGI (MDA-MB-435) was 33 µM, the GI50 (UACC-257 melanoma) was 19 µM and the TGI (UACC-257 melanoma) was 66.5 µM. For the same molecule, the GI50 (OVCAR-4 ovarian) was 22.3 µM, the TGI (OVCAR-4 ovarian) was over 100 µM and the GI50 (NCI-H522 lung) was 11.7 µM. It also gave a TGI (NCI-H522 lung) of 27.4 µM, a GI50 (SW-620 colon) of 2.8 µM and a TGI (SW-620 colon) of 8.76 µM. For the same molecule, the GI50 (SN12C renal) was 4.71 µM, the TGI (SN12C renal) was 19.2 µM and the GI50 (U251 CNS) was 3.26 µM. For the same molecule, the TGI (U251 CNS) was 13.2 µM, the GI50 (MALME-3M melanoma) was 12.2 µM and the TGI (MALME-3M melanoma) was 27.4 µM. For the same molecule, the GI50 (K-562 leukemia) was 3.21 µM, the TGI (K-562 leukemia) was over 100 µM and the GI50 (SK-MEL-5 melanoma) was 12.2 µM. The TGI (SK-MEL-5 melanoma) was 24.6 µM, the GI50 (MCF7 breast) was 2.82 µM and the TGI (MCF7 breast) was 12.8 µM. It also gave a GI50 (RXF 393 renal) of 3.51 µM and a TGI (RXF 393 renal) of 13.7 µM.
